According to ChEMBL document CHEMBL5696439 (Cancer Res, 2010):
Activity calls are given as the source filed them. The rule behind the calls is not given here.

Columns and labels:
[1] = biological target: MAP kinase-activated protein kinase 5 (Homo sapiens) (UniProt Q8IW41); assay: Inhibition of recombinant human full length His-tagged MAPKAPK5 expressed in baculovirus expression system at 2 uM using Ser/Thr 04 as substrate measured after 1 hr by Z'-LYTE assay relative to control
[2] = biological target: Serine/threonine-protein kinase PAK 3 (Homo sapiens) (UniProt O75914); assay: Inhibition of recombinant human full length His-tagged PAK3 expressed in insect cells at 2 uM using Ser/Thr 20 as substrate measured after 1 hr by Z'-LYTE assay relative to control; settings: Insect cell
[3] = biological target: Protein kinase C delta type (Homo sapiens) (UniProt Q05655); assay: Inhibition of recombinant human full length GST-tagged PRKCD expressed in baculovirus expression system at 2 uM using Ser/Thr 07 as substrate measured after 1 hr by Z'-LYTE assay relative to control
[4] = biological target: Mitogen-activated protein kinase 1 (Homo sapiens) (UniProt P28482); assay: Inhibition of recombinant human full length GST-tagged MAPK1 expressed in E.coli at 2 uM using Ser/Thr 03 as substrate measured after 1 hr by Z'-LYTE assay relative to control
[5] = biological target: Serine/threonine-protein kinase TAO2 (Homo sapiens) (UniProt Q9UL54); assay: Inhibition of recombinant human GST-tagged TAOK2 (1-314 residues) expressed in insect cells at 2 uM using Ser/Thr 07 as substrate measured after 1 hr by Z'-LYTE assay relative to control; settings: Insect cell
[6] = system: Epidermal growth factor receptor (Homo sapiens), P00533 [L861Q]; assay: Inhibition of recombinant human GST-tagged EGFR L861Q mutant (668-1210 residues) expressed in insect cells at 2 uM using Tyr 04 as substrate measured after 1 hr by Z'-LYTE assay relative to control; settings: Insect cell
MDA-MB-468 = assay: Induction of apoptosis in human MDA-MB-468 cells assessed as reduction in S phase at 1 micromol/L incubated for 24 hrs by FACS analysis; format: functional, cell-based; settings: dose 1.0 µmol/L
[7] = biological target: Testis-specific serine/threonine-protein kinase 1 (Homo sapiens) (UniProt Q9BXA7); assay: Inhibition of recombinant human full length His-tagged STK22D expressed in insect cells at 2 uM using Ser/Thr 04 as substrate measured after 1 hr by Z'-LYTE assay relative to control; settings: Insect cell
MDA-MB-361 [8] = assay: Antiproliferative activity against human MDA-MB-361 cells assessed as cell growth inhibition incubated for 24 hrs by MTS assay; format: functional, cell-based; settings: MDA-MB-361, 24 h
[9] = biological target: Testis-specific serine/threonine-protein kinase 2 (Homo sapiens) (UniProt Q96PF2); assay: Inhibition of recombinant human full length His-tagged STK22B expressed in insect cells at 2 uM using Ser/Thr 04 as substrate measured after 1 hr by Z'-LYTE assay relative to control; settings: Insect cell
[10] = biological target: Dual specificity tyrosine-phosphorylation-regulated kinase 1A (Homo sapiens) (UniProt Q13627); assay: Inhibition of recombinant human full-length GST-tagged DYRK1A expressed in insect cells at 2 uM using Ser/Thr 18 as substrate measured after 1 hr by Z'-LYTE assay relative to control; settings: Insect cell
[11] = biological target: Tyrosine-protein kinase Blk (Homo sapiens) (UniProt P51451); assay: Inhibition of recombinant human full-length His-tagged BLK expressed in insect cells at 2 uM using Tyr 01 as substrate measured after 1 hr by Z'-LYTE assay relative to control; settings: Insect cell
MDA-MB-361 [12] = assay: Antiproliferative activity against human MDA-MB-361 cells assessed as cell growth inhibition at 10 micromol/L incubated for 3 days by MTS assay relative to control; format: functional; settings: MDA-MB-361, 72 h, dose 10 µmol/L, time 3 day
[13] = biological target: Tyrosine-protein kinase CSK (Homo sapiens) (UniProt P41240); assay: Inhibition of recombinant human full-length His-tagged CSK expressed in E. coli at 2 uM using Tyr 02 as substrate measured after 1 hr by Z'-LYTE assay relative to control
[14] = biological target: Dual specificity tyrosine-phosphorylation-regulated kinase 3 (Homo sapiens) (UniProt O43781); assay: Inhibition of recombinant human full-length GST-tagged DYRK3 expressed in insect cells at 2 uM using Ser/Thr 09 as substrate measured after 1 hr by Z'-LYTE assay relative to control; settings: Insect cell
mTORC2 (Homo sapiens) = mTORC2 (Homo sapiens) (UniProt P42345+Q6R327+Q9BVC4+Q9BPZ7); settings: PC3MM2, dose 0.1-1 µM, time 6.0 hrs
[15] = biological target: Tyrosine-protein kinase ABL2 (Homo sapiens) (UniProt P42684); assay: Inhibition of recombinant human full-length His-tagged ABL2 expressed in insect cells at 2 uM using Tyr 02 as substrate measured after 1 hr by Z'-LYTE assay relative to control; settings: Insect cell
[16] = biological target: Casein kinase II subunit alpha (Homo sapiens) (UniProt P68400); assay: Inhibition of recombinant human full-length His-tagged CSNK2A1 expressed in baculovirus expression system at 2 uM using Ser/Thr 11 as substrate measured after 1 hr by Z'-LYTE assay relative to control
U-87 MG = assay: Induction of apoptosis in human U-87MG cells assessed as increase in G1 phase at 1 micromol/L incubated for 24 hrs by FACS analysis; format: functional, cell-based; settings: U-87MG ATCC, dose 1.0 µmol/L
[17] = biological target: Tyrosine-protein kinase Yes (Homo sapiens) (UniProt P07947); assay: Inhibition of recombinant human full length GST-tagged YES1 expressed in insect cells at 2 uM using Ser/Thr 07 as substrate measured after 1 hr by Z'-LYTE assay relative to control; settings: Insect cell
[18] = biological target: Serine/threonine-protein kinase D2 (Homo sapiens) (UniProt Q9BZL6); assay: Inhibition of recombinant human full length GST-tagged PRKD2 expressed in insect cells at 2 uM using Ser/Thr 17 as substrate measured after 1 hr by Z'-LYTE assay relative to control; settings: Insect cell
[19] = biological target: Platelet-derived growth factor receptor alpha (Homo sapiens) (UniProt P16234); assay: Inhibition of recombinant human GST-tagged PDGFRA (550-1089 residues) expressed in baculovirus expression system at 2 uM using Tyr 04 as substrate measured after 1 hr by Z'-LYTE assay relative to control
[20] = biological target: Rhodopsin kinase GRK7 (Homo sapiens) (UniProt Q8WTQ7); assay: Inhibition of recombinant human full-length GST-tagged GRK7 expressed in insect cells at 2 uM using Ser/Thr 16 as substrate measured after 1 hr by Z'-LYTE assay relative to control; settings: Insect cell
[21] = system: Proto-oncogene tyrosine-protein kinase receptor Ret (Homo sapiens), P07949 [Y791F]; assay: Inhibition of recombinant human GST-tagged RET Y791F mutant (658-1114 residues) expressed in baculovirus expression system at 2 uM using Tyr 02 as substrate measured after 1 hr by Z'-LYTE assay relative to control
786-0 = assay: Antitumor activity against VHL null-human 786-0 cells xenografted in female nude mouse model assessed as suppression in tumor growth at 25 mg/kg, po qd administered as 5 days on/2 days off regimen for 4 cycles relative to control; format: functional; settings: time 28 day

Serine/threonine-protein kinase TAO2 (Homo sapiens), sequence (Q9UL54 whole entry, the tested form may be a part): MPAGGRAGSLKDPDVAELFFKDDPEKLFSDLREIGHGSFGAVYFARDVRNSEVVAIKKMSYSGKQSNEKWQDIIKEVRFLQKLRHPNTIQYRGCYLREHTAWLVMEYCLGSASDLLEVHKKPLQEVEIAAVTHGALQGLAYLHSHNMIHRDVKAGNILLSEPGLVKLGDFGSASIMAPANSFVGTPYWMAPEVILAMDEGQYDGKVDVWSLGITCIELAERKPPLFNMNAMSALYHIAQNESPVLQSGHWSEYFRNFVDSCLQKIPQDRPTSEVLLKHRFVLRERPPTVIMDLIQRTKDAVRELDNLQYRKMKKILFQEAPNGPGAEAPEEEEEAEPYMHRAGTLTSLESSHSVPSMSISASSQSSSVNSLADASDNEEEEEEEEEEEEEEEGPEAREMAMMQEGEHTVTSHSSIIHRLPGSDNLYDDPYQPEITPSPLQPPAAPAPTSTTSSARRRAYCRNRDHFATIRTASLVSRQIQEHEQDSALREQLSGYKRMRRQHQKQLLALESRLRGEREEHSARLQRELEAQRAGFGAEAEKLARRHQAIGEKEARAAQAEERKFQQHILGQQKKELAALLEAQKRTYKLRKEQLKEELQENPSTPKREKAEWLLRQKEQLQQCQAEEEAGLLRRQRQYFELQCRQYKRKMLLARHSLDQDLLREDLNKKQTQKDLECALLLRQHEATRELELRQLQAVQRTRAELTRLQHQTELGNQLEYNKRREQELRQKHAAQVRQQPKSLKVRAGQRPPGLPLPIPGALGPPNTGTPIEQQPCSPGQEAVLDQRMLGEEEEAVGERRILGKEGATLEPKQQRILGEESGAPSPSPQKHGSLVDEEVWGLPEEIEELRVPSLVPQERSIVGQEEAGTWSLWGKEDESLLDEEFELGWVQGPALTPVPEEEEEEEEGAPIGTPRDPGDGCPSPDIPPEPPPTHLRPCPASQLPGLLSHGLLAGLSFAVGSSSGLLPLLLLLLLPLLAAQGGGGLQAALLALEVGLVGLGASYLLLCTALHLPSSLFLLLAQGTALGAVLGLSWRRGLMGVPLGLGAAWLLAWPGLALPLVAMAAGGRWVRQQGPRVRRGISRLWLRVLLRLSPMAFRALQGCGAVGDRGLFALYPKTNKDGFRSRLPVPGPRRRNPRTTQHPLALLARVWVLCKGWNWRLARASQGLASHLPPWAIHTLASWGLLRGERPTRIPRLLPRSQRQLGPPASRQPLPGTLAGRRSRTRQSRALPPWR
Casein kinase II subunit alpha (Homo sapiens), sequence (P68400 whole entry, looked up): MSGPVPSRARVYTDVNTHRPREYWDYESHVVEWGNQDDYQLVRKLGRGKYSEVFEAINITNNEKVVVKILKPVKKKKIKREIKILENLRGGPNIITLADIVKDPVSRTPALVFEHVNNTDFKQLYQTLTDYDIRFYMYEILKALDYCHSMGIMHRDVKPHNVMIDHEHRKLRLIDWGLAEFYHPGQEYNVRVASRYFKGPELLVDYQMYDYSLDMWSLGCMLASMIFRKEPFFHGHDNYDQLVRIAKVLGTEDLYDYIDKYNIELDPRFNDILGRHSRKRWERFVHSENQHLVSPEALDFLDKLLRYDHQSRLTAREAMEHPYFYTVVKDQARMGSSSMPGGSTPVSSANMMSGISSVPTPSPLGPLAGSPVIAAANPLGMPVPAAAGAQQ
Proto-oncogene tyrosine-protein kinase receptor Ret (Homo sapiens), P07949 [Y791F], sequence (P07949 whole entry Y791F, the tested form may be a part): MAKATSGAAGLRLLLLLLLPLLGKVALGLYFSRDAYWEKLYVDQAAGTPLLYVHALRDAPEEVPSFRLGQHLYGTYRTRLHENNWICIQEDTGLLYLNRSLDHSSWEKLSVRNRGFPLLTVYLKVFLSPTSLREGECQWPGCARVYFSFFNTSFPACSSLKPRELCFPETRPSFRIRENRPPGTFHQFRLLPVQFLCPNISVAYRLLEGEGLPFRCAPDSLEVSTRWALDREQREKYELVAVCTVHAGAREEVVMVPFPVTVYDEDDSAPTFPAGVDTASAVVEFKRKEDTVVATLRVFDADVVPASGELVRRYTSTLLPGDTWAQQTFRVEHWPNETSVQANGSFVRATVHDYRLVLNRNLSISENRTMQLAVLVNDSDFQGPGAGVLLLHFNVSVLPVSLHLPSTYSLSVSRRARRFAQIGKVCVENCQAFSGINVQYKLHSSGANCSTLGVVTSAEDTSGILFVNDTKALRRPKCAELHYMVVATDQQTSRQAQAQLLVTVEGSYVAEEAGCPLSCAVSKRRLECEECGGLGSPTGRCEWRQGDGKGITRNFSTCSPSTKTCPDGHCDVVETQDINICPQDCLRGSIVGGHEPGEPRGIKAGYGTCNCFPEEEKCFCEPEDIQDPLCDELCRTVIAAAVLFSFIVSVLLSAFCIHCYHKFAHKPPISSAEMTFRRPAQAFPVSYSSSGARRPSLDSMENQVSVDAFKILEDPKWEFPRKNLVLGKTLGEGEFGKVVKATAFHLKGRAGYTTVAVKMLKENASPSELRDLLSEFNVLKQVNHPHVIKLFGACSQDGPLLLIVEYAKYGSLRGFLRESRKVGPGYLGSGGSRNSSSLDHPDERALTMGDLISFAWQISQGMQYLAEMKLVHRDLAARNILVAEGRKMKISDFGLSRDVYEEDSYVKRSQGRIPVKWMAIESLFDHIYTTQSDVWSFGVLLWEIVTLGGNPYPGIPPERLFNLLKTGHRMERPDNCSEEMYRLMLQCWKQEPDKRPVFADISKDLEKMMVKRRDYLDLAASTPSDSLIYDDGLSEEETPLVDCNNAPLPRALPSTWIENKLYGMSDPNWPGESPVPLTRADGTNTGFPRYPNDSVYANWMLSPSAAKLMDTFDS
Tyrosine-protein kinase ABL2 (Homo sapiens), sequence (P42684 whole entry): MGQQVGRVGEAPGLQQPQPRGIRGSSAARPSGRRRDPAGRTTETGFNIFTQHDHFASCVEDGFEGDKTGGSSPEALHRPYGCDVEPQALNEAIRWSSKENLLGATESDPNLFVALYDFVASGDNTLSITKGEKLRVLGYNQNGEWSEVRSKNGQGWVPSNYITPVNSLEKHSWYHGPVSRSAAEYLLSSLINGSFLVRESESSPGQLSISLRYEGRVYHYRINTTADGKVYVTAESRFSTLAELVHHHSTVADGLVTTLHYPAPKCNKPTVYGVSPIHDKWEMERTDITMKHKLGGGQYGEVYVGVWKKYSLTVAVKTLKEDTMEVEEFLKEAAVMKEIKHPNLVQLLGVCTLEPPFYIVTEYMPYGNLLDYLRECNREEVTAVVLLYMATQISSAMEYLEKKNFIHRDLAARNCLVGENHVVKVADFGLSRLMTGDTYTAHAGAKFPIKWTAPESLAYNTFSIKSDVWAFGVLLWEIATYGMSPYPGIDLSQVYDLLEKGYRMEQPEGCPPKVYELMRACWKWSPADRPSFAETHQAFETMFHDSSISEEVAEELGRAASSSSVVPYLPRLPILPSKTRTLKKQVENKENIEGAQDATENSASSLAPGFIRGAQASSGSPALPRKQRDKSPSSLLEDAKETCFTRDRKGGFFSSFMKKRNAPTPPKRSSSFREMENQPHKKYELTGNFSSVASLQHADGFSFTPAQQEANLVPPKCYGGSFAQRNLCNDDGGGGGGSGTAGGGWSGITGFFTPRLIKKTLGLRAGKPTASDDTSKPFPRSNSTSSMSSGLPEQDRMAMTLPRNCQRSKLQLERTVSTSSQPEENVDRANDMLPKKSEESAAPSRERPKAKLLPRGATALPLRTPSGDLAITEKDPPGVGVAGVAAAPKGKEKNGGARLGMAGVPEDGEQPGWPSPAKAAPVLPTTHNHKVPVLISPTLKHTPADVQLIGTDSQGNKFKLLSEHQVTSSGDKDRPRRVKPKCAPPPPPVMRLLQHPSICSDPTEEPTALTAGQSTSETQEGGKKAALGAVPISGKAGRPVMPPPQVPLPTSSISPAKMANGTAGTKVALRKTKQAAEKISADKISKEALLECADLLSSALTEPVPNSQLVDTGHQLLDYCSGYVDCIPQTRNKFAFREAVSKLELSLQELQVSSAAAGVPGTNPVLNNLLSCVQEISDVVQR
Testis-specific serine/threonine-protein kinase 2 (Homo sapiens), sequence (Q96PF2 whole entry): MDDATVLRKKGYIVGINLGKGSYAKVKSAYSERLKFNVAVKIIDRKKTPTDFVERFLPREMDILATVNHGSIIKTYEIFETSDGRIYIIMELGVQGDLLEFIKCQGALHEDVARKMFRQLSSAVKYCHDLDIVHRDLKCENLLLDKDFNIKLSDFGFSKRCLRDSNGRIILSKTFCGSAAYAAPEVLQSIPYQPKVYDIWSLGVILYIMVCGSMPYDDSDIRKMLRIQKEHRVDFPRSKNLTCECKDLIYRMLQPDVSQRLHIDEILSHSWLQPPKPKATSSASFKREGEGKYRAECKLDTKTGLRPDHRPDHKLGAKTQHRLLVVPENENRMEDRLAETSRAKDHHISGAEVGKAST
Dual specificity tyrosine-phosphorylation-regulated kinase 3 (Homo sapiens), sequence (O43781 whole entry): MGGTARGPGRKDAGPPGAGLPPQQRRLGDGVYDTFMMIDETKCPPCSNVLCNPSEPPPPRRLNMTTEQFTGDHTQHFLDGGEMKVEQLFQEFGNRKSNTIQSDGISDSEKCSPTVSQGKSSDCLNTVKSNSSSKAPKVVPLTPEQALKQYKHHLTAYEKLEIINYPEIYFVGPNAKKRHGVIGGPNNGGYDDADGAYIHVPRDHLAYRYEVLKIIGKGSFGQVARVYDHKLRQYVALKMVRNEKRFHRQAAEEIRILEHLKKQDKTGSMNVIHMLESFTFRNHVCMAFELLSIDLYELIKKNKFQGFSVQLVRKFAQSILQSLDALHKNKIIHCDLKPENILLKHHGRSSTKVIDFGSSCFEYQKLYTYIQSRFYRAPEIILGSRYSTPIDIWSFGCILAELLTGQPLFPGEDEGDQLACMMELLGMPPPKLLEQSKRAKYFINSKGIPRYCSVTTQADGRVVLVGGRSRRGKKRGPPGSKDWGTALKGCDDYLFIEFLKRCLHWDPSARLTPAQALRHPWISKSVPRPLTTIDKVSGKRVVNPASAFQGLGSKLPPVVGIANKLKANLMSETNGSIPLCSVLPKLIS

How did the inhibition [1] turn out when `CNC(=O)Nc1ccc(-c2nc(N3CC4CCC(C3)O4)c3cnn(C4CCC5(CC4)OCCO5)c3n2)cc1` was run?
The inhibition was 5%.

What about the inhibition [2] of the same molecule?
Its inhibition is 1%.

And the inhibition [3]?
The inhibition was 16%.

And the inhibition [4]?
The inhibition was 0%.

And the inhibition [5]?
Its inhibition is 3%.

And the inhibition [6]?
The inhibition was -1%.

What about the Activity (MDA-MB-468) of the same molecule?
Its Activity is “Active”.

And the inhibition [7]?
The inhibition was 3%.

What about the IC50 (MDA-MB-361 [8]) of the same molecule?
The IC50 was 0.024 µM.

And the inhibition [9]?
The inhibition was 2%.

What about the inhibition [10] of the same molecule?
Its inhibition is 2%.

What about the inhibition [11] of the same molecule?
Its inhibition is 1%.

What about the inhibition at 10 µM (MDA-MB-361 [12]) of the same molecule?
The inhibition at 10 µM was 100%.

What about the inhibition [13] of the same molecule?
The inhibition was -1%.

And the inhibition [14]?
Its inhibition is -1%.

What about the inhibition (mTORC2 (Homo sapiens)) of the same molecule?
The inhibition was “Active”.

What about the inhibition [15] of the same molecule?
The inhibition was 13%.

And the inhibition [16]?
Its inhibition is 0%.

And the Activity (U-87 MG)?
Its Activity is “Active”.

And the inhibition [17]?
The inhibition was 2%.

What about the inhibition [18] of the same molecule?
The inhibition was 1%.

And the inhibition [19]?
The inhibition was 0%.

What about the inhibition [20] of the same molecule?
Its inhibition is 7%.

And the inhibition [21]?
Its inhibition is 2%.

And the Activity (786-0)?
The Activity was 100%.
